Assay results reported in ChEMBL document CHEMBL1159093, “Discovery and optimization of RO-85, a novel drug-like, potent, and selective P2X3 receptor antagonist” (Bioorg Med Chem Lett, 2010).

Columns and labels:
[1] = molecular target: Adenosine receptor A1 (Homo sapiens) (UniProt P30542); test: Displacement of [3H]DPCPX from human recombinant A1 receptor expressed in CHO cells at 10 uM after 60 mins by scintillation counting; assay type: cell-based
[2] = molecular target: Adrenergic receptor alpha-1 (Rattus norvegicus) (UniProt P15823+P23944+P43140); test: Displacement of [3H]prazosin from alpha1 receptor in rat cerebral cortex at 10 uM after 60 mins by scintillation counting; assay type: tissue-based
[3] = molecular target: Beta-2 adrenergic receptor (Homo sapiens) (UniProt P07550); test: Displacement of [3H](-)CGP 12177 from human recombinant beta2 adrenergic receptor expressed in CHO cells at 10 uM after 120 mins by scintillation counting; assay type: cell-based
[4] = molecular target: D(2) dopamine receptor (Homo sapiens) (UniProt P14416); test: Displacement of [3H]methyl-spiperone from human recombinant D2S receptor expressed in HEK293 cells at 10 uM after 60 mins by scintillation counting; assay type: cell-based
[5] = molecular target: D(3) dopamine receptor (Homo sapiens) (UniProt P35462); test: Displacement of [3H]methyl-spiperone from human recombinant dopamine D3 receptor expressed in CHO cells at 10 uM after 60 mins by scintillation counting; assay type: cell-based
[6] = molecular target: D(4) dopamine receptor (Homo sapiens) (UniProt P21917); test: Displacement of [3H]methyl-spiperone from human recombinant D4.4 receptor expressed in CHO cells at 10 uM after 60 mins by scintillation counting; assay type: cell-based
[7] = molecular target: Histamine H2 receptor (Homo sapiens) (UniProt P25021); test: Displacement of [125I]APT from human recombinant histamine H2 receptor expressed in CHO cells at 10 uM after 120 mins by scintillation counting; assay type: cell-based
[8] = molecular target: Melatonin receptor type 1A (Homo sapiens) (UniProt P48039); test: Displacement of [125I]2-iodomelatonin from human recombinant MT1 receptor expressed in CHO cells at 10 uM after 60 mins by scintillation counting; assay type: cell-based
[9] = molecular target: Muscarinic acetylcholine receptor M5 (Homo sapiens) (UniProt P08912); test: Displacement of [3H]4-DAMP from human recombinant muscarinic M5 receptor expressed in CHO cells at 10 uM after 60 mins by scintillation counting; assay type: cell-based
[10] = molecular target: Prostaglandin E2 receptor EP2 subtype (Homo sapiens) (UniProt P43116); test: Displacement of [3H]PGE2 from human recombinant EP2 receptor expressed in HEK293 cells at 10 uM after 120 mins by scintillation counting; assay type: cell-based
[11] = molecular target: 5-hydroxytryptamine receptor 1A (Homo sapiens) (UniProt P08908); test: Displacement of [3H]8-OH-DPAT from human recombinant 5HT1A receptor expressed in HEK293 cells at 10 uM after 60 mins by scintillation counting; assay type: cell-based
[12] = molecular target: 5-hydroxytryptamine receptor 2C (Homo sapiens) (UniProt P28335); test: Displacement of [3H]mesulergine from human recombinant 5HT2C receptor expressed in HEK293 cells at 10 uM after 120 mins by scintillation counting; assay type: cell-based
[13] = molecular target: 5-hydroxytryptamine receptor 7 (Homo sapiens) (UniProt P34969); test: Displacement of [3H]LSD from human recombinant 5HT7 receptor expressed in CHO cells at 10 uM after 120 mins by scintillation counting; assay type: cell-based
Rattus norvegicus [14] = organism: Rattus norvegicus; test: Displacement of [3H]DTG from sigma opioid receptor in rat cerebral cortex at 10 uM after 120 mins by scintillation counting; assay type: tissue-based
[15] = molecular target: Type-1 angiotensin II receptor (Homo sapiens) (UniProt P30556); test: Displacement of [125I][Sar1,Ile8]-AT-2 from human recombinant AT1 receptor expressed in HEK293 cells at 10 uM after 120 mins by scintillation counting; assay type: cell-based
Rattus norvegicus [16] = organism: Rattus norvegicus; test: Displacement of [125I][Tyr4]bombesin from Bombesin receptor in rat cerebral cortex at 10 uM after 60 mins by scintillation counting; assay type: tissue-based
[17] = molecular target: B2 bradykinin receptor (Homo sapiens) (UniProt P30411); test: Displacement of [3H]bradykinin from human recombinant bradykinin B2 receptor expressed in CHO cells at 10 uM after 60 mins by scintillation counting; assay type: cell-based
[18] = molecular target: Cholecystokinin receptor type A (Homo sapiens) (UniProt P32238); test: Displacement of [125I]CCK-8s from human recombinant CCK1 receptor expressed in CHO cells at 10 uM after 60 mins by scintillation counting; assay type: cell-based
[19] = molecular target: Pituitary adenylate cyclase-activating polypeptide type I receptor (Homo sapiens) (UniProt P41586); test: Displacement of [125I]PACAP1-27 from human recombinant PAC1 receptor expressed in CHO cells at 10 uM after 120 mins by scintillation counting; assay type: cell-based
[20] = molecular target: Peroxisome proliferator-activated receptor gamma (Homo sapiens) (UniProt P37231); test: Displacement of [3H]rosiglitazone from human recombinant PPARgamma receptor expressed in Escherichia coli at 10 uM after 120 mins by scintillation counting
Rattus norvegicus [21] = organism: Rattus norvegicus; test: Displacement of [125I]a-dendrotoxin from potassium channel in rat cerebral cortex at 10 uM after 60 mins by scintillation counting; assay type: tissue-based
[22] = molecular target: Thromboxane A2 receptor (Homo sapiens) (UniProt P21731); test: Displacement of [3H]SQ29548 from human recombinant TP receptor expressed in HEK293 cells at 10 uM after 60 mins by scintillation counting; assay type: cell-based
[23] = Inhibition of Cytochrome P450 at <15 uM; assay type: ADME
Hepatocyte = test: Metabolic stability in rat hepatocytes; assay type: ADME, cell-based
[24] = molecular target: Gastrin/cholecystokinin type B receptor (Homo sapiens) (UniProt P32239); test: Displacement of [125I]CCK-8s from human recombinant CCK2 receptor expressed in CHO cells at 10 uM after 60 mins by scintillation counting; assay type: cell-based
[25] = molecular target: Endothelin-1 receptor (Homo sapiens) (UniProt P25101); test: Displacement of [125I]endothelin-1 from human recombinant ETA receptor expressed in CHO cells at 10 uM after 120 mins by scintillation counting; assay type: cell-based
[26] = molecular target: Galanin receptor type 2 (Homo sapiens) (UniProt O43603); test: Displacement of [125I]galanin from human recombinant GAL2 receptor expressed in HEK293 cells at 10 uM after 120 mins by scintillation counting; assay type: cell-based
[27] = molecular target: Platelet-derived growth factor receptor (Mus musculus) (UniProt P05622+P26618); test: Displacement of [125I]PDGF BB from PDGFR in BALB/c mouse 3T3 cells at 10 uM after 180 mins by scintillation counting; assay type: cell-based
[28] = molecular target: Substance-K receptor (Homo sapiens) (UniProt P21452); test: Displacement of [125I]NKA from human recombinant NK2 receptor expressed in CHO cells at 10 uM after 60 mins by scintillation counting; assay type: cell-based
[29] = molecular target: Neuromedin-K receptor (Homo sapiens) (UniProt P29371); test: Displacement of [3H]SR142801 from human recombinant NK3 receptor expressed in CHO cells at 10 uM after 120 mins by scintillation counting; assay type: cell-based
[30] = molecular target: Neurotensin receptor type 1 (Homo sapiens) (UniProt P30989); test: Displacement of [125I]Tyr3-neurotensin from human recombinant NTS1 receptor expressed in CHO cells at 10 uM after 60 mins by scintillation counting; assay type: cell-based
[31] = molecular target: Kappa-type opioid receptor (Rattus norvegicus) (UniProt P34975); test: Displacement of [3H]U 69593 from rat recombinant kappa opioid receptor expressed in CHO cells at 10 uM after 60 mins by scintillation counting; assay type: cell-based

Sequence of B2 bradykinin receptor (Homo sapiens) (P30411 whole entry): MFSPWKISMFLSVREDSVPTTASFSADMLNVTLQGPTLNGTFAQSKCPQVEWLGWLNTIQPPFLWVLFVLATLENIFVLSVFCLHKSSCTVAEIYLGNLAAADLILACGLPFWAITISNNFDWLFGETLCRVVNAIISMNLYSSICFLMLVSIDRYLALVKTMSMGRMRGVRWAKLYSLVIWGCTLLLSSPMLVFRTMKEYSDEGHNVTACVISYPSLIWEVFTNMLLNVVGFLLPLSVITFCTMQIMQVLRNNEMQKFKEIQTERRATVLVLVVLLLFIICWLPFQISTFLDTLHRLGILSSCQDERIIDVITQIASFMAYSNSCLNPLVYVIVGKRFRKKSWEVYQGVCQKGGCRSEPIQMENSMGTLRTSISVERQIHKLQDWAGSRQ
Sequence of Melatonin receptor type 1A (Homo sapiens) (P48039 whole entry): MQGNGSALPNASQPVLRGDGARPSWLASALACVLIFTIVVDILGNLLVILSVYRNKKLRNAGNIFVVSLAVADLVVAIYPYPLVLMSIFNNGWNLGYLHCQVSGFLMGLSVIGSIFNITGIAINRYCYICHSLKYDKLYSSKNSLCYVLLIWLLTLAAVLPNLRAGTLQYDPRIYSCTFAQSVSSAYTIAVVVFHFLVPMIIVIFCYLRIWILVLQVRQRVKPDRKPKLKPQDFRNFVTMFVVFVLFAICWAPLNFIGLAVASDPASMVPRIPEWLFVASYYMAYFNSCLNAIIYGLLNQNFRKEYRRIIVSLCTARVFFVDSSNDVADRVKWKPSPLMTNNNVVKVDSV
Sequence of Histamine H2 receptor (Homo sapiens) (P25021 whole entry): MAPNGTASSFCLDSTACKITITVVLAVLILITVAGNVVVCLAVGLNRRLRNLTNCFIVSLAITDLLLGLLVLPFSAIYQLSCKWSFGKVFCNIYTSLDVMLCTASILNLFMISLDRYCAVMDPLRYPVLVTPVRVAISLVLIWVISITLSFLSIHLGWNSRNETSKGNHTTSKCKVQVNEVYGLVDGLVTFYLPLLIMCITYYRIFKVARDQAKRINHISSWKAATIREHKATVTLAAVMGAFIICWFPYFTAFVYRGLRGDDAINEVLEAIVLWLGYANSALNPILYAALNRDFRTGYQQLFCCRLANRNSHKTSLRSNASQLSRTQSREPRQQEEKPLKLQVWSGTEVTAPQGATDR
Sequence of Prostaglandin E2 receptor EP2 subtype (Homo sapiens) (P43116 whole entry): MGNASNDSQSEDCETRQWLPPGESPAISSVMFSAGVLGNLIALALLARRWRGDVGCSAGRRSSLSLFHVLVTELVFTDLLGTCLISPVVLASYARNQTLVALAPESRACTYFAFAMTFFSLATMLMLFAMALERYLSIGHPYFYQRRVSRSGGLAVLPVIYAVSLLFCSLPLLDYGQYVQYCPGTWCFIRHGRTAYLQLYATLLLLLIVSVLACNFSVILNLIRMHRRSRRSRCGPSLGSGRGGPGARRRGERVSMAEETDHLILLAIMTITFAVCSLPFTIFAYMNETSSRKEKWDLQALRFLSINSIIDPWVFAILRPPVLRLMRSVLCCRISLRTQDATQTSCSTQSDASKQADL
Sequence of 5-hydroxytryptamine receptor 7 (Homo sapiens) (P34969 whole entry): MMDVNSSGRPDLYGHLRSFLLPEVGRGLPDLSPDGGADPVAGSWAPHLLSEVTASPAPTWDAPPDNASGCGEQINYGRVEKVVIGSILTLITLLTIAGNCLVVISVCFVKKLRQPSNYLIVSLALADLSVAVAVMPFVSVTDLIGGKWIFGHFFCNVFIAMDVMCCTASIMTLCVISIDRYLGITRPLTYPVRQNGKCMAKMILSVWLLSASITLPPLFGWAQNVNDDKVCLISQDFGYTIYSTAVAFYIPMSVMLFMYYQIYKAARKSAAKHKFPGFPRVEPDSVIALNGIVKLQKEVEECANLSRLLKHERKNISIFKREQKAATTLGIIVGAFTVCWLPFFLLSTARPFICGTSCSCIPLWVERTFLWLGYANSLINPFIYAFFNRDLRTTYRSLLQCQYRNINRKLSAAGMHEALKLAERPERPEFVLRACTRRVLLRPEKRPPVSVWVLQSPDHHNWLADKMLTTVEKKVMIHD
Sequence of Neuromedin-K receptor (Homo sapiens) (P29371 whole entry): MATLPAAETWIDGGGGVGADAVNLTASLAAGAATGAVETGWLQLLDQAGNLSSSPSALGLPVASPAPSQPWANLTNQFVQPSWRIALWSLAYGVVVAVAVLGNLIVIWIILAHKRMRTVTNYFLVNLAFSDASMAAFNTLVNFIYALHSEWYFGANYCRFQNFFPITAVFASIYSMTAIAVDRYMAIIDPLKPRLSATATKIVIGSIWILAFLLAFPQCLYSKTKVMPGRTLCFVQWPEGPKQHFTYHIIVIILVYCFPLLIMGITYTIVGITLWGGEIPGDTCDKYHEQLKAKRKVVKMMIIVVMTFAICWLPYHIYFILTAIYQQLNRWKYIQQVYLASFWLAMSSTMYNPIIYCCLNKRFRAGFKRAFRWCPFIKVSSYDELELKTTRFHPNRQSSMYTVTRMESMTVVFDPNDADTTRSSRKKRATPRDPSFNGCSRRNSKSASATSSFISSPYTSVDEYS
Sequence of Gastrin/cholecystokinin type B receptor (Homo sapiens) (P32239 whole entry): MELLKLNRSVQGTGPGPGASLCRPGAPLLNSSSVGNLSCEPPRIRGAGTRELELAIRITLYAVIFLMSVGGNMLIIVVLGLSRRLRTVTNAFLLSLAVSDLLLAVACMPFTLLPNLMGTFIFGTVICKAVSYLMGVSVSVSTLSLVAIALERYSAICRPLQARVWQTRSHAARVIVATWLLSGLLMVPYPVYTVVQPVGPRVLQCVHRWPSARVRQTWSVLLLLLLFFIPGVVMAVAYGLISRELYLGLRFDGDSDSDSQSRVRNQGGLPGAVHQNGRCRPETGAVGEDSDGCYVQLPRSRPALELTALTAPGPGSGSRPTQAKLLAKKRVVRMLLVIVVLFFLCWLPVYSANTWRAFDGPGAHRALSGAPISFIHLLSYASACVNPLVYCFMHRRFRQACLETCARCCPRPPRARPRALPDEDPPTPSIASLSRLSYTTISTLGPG
Sequence of Pituitary adenylate cyclase-activating polypeptide type I receptor (Homo sapiens) (P41586 21-468 limits assumed): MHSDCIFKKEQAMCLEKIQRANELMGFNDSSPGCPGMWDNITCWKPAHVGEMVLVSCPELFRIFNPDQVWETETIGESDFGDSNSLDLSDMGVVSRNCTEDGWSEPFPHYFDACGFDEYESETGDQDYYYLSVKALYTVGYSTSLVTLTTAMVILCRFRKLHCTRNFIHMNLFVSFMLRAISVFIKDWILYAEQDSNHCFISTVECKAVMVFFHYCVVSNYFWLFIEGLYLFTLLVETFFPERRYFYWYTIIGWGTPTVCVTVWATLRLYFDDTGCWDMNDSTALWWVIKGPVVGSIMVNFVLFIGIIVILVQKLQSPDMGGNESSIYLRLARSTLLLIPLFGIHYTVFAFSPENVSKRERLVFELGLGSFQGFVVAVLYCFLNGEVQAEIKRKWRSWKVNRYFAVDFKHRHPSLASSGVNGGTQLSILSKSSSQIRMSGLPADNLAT
Sequence of D(2) dopamine receptor (Homo sapiens) (P14416 whole entry): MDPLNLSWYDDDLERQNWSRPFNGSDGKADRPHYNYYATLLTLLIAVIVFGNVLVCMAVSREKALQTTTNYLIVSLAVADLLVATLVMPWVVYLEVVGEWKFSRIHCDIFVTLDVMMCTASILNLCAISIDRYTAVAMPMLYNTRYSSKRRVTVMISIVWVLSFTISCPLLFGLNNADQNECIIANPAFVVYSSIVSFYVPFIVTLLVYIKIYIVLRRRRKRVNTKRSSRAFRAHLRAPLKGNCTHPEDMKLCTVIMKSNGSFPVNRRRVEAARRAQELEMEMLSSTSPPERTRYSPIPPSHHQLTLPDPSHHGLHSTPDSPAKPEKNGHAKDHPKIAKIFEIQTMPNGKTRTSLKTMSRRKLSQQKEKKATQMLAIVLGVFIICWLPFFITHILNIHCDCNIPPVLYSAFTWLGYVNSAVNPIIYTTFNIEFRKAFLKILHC
Sequence of Type-1 angiotensin II receptor (Homo sapiens) (P30556 whole entry): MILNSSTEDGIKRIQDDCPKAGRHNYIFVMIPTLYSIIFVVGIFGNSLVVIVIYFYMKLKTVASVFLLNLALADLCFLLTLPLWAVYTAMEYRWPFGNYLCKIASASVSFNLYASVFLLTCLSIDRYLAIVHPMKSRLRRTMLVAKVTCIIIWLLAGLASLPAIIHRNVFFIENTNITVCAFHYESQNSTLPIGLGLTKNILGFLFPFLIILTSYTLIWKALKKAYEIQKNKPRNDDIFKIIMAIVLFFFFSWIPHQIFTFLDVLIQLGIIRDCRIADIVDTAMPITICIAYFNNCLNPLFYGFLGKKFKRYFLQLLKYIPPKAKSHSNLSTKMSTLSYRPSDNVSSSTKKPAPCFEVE
Sequence of Thromboxane A2 receptor (Homo sapiens) (P21731 whole entry): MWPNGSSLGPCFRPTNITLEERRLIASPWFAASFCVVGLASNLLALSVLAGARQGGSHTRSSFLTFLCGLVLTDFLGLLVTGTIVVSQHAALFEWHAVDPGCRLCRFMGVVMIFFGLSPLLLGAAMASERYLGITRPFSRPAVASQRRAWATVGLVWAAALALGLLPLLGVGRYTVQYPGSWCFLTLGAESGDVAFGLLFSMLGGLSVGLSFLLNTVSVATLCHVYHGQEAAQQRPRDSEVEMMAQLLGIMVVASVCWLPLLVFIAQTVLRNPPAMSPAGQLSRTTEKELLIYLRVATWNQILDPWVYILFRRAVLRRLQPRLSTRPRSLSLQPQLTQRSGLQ
Sequence of D(3) dopamine receptor (Homo sapiens) (P35462 whole entry): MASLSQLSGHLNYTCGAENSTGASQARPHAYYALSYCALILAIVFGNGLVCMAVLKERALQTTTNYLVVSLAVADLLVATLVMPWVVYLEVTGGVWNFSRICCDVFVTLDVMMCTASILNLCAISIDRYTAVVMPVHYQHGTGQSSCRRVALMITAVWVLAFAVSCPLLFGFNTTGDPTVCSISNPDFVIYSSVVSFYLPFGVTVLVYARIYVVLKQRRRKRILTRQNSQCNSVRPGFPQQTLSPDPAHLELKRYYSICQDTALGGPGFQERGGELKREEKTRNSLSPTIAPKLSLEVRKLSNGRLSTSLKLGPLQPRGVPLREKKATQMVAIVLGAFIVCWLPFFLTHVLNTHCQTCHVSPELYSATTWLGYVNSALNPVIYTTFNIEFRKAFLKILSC

In the case of CC(=O)N1CCN(C[C@@H](C)NC(=O)c2cc3c(-c4ccccc4)nn(C)c3s2)CC1, the Activity [1] is reported as greater than 50%, the Activity [2] is reported as greater than 50% and the Activity [3] is reported as greater than 50%. It also gave an Activity [4] greater than 50%, an Activity [5] greater than 50% and an Activity [6] greater than 50%. For the same molecule, the Activity [7] was greater than 50%, the Activity [8] was greater than 50% and the Activity [9] was greater than 50%. For the same molecule, the Activity [10] was greater than 50%, the Activity [11] was greater than 50% and the Activity [12] was greater than 50%. The Activity [13] was greater than 50%, the Activity (Rattus norvegicus [14]) was greater than 50% and the Activity [15] was greater than 50%. The Activity (Rattus norvegicus [16]) was greater than 50%, the Activity [17] was greater than 50% and the Activity [18] was greater than 50%. For the same molecule, the Activity [19] was greater than 50%, the Activity [20] was greater than 50% and the Activity (Rattus norvegicus [21]) was greater than 50%. The Activity [22] was greater than 50%, the Activity [23] was “Not Active” and the Stability (Hepatocyte) was 3.93 µL/min/mg. For the same molecule, the Activity [24] was greater than 50%, the Activity [25] was greater than 50% and the Activity [26] was greater than 50%. It also gave an Activity [27] greater than 50%, an Activity [28] greater than 50% and an Activity [29] greater than 50%. It also gave an Activity [30] greater than 50% and an Activity [31] greater than 50%.
